Each structure is given as a SMILES string.

Experiment [1] deals with HeLa. As to the kind of experiment: Compound was tested for antitumor activity against the human uterine cancer cell (HeLa) line at concentration of […] x 10 e-5 M. Format: functional.
Experiment [2] deals with HeLa. In words: Compound was tested for antitumor activity against the human uterine cancer cell (HeLa) line at concentration of 1 x 10 e-6 M. Format: functional.
For experiment [3], the system named is HeLa. As to the kind of experiment: Compound was tested for antitumor activity against the human uterine cancer cell (HeLa) line at concentration of 1 x 10 e-7 M. Type of experiment: functional.
The test system of experiment [4] is HeLa. As to the kind of experiment: Compound was tested for antitumor activity against the human uterine cancer cell (HeLa) line at concentration of […] x 10 e-4 M. Type of experiment: functional.
The subject of experiment [5] is Nucleic Acid. In words: Compound was evaluated for DNA-binding affinity using calf-thymus DNA. The conditions noted are these: Bos taurus. Format: nucleic-acid assay.
Experiment [6] has as its system Nucleic Acid. In words: Compound was evaluated for DNA-binding affinity using poly[d(AT)]2. Type of experiment: nucleic-acid assay.
Experiment [7] concerns Nucleic Acid. In words: Compound was evaluated for DNA-binding affinity using poly[d(GC)]2. Type of experiment: nucleic-acid assay.
Experiment [8] can be described thus: Ratio of C50(GC) to that of C50(AT).

Turning to `Cl.Cl.NCCNCc1ccc2nc(-c3ccccc3)ccc2c1`, the Cell survival in the experiment with HeLa [1] is recorded as 44%; in the experiment with HeLa [2], 82%; in the experiment with HeLa [3], 85%; in the experiment with HeLa [4], 0%.

In the case of `Cl.Cl.Cl.NCCNCc1ccc2ccc(-c3ccccc3)nc2c1`, the C50 in the experiment with Nucleic Acid [5] was determined as 11 µM; with Nucleic Acid [6] it was 11 µM; in the experiment on Nucleic Acid [7], 16 µM. Besides, the Cell survival with HeLa [1] is 31%; with HeLa [2], 70%; with HeLa [3] it was 98%; in the experiment on HeLa [4], 3%. In experiment [8], the Ratio came to 1.5.

For the molecule `Cl.Cl.Cl.NCCNCc1ccc(-c2ccc3ccccc3n2)cc1`, the C50 in the experiment with Nucleic Acid [5] is 7 µM; with Nucleic Acid [6] it was 7 µM; in the experiment with Nucleic Acid [7], 11 µM. The Cell survival in the experiment with HeLa [1] stood at 65%; in the experiment on HeLa [2], 87%; in the experiment on HeLa [3], 79%; with HeLa [4], 3%. The Ratio in experiment [8] stood at 1.6.

Turning to `Cl.Cl.Cl.NCCNCc1c2ccccc2nc2ccccc12`, the Cell survival with HeLa [1] was 71%; with HeLa [2], 94%; with HeLa [3], 100%; with HeLa [4] it was 3%.

In the case of `Cl.Cl.Cl.NCCNCc1cc(-c2ccccc2)nc2ccccc12`, the C50 with Nucleic Acid [5] was 30 µM; in the experiment on Nucleic Acid [6], 33 µM; in the experiment with Nucleic Acid [7], 48 µM. The Cell survival came to 52% in the experiment with HeLa [1], 62% in the experiment with HeLa [2], 74% in the experiment on HeLa [3] and 8% in the experiment with HeLa [4]. Besides, in experiment [8], the Ratio was determined as 1.5.

Consider `Cl.Cl.Cl.NCCNCc1cccc2ccc(-c3ccccc3)nc12`, for which the C50 with Nucleic Acid [5] stood at 2.1 µM; with Nucleic Acid [6], 5.2 µM; in the experiment with Nucleic Acid [7], 5.6 µM. Moreover, the Cell survival in the experiment on HeLa [1] stood at 7%; in the experiment with HeLa [2], 65%; with HeLa [3] it was 77%; with HeLa [4], 0%. Further, the Ratio in experiment [8] was found to be 1.1.

These data come from ChEMBL document CHEMBL1130992, “Effect of side chain location in (2-aminoethyl)-aminomethyl-2-phenylquinolines as antitumor agents” (1998).
